Experimental data: patent publication US8557837B2, “Sinomenine derivatives, synthetic methods and uses thereof” (Shanghai Institute of Organic Chemistry, Chinese Academy of …, priority 2010, dated 2013)
Entries after “also recorded” stand apart in the source; their conditions may differ.

tested on: TNF-α; assay: In vitro inhibition of TNF-α (LPS-stimulated J774 macrophages, ELISA of supernatant); assay type: cell-based; details: mice macrophage cell line J774, 1 μg/mL LPS, compound 10 μM, 5 hours
Method: The horizontal axis indicates the compound numbers corresponding to the examples, and the vertical axis indicates the inhibition rate (IR) of TNF-α. The concentration used in the assays is 10 μM.
In vitro inhibition of TNF-α: inoculate 48 well plates with mice macrophase cell line J774, at 1×10^5 cells/well. Incubate in DMEM containing 10% FBS under 6% CO2 for 12 hours. Use DMEM medium containing 1 μg/mL LPS to dilute the small molecule compounds to a final concentration of 10^−5 mol/L and use that to replace the original culture medium. The incubation is continued for another 5 hours. Collect the supernatants and determine TNF-α using ELISA. In this experiment, compound SB 202190 (4-(4-fluorophenyl)-2-(4-hydroxyphenyl)-5-(4-pyridyl)-1H-imidazole, CAS 152121-30-7, was purchased from Sigma. This compound is a specific inhibitor of p38 MAPK. Through inhibition of p38 phosphorylation, it inhibits the production of TNF-α) is used as a positive control.

Row | Compound | inhibition rate (IR) of TNF-α / anti-inflammatory activity (FIG. 1)
1 | COC1=CC2[C@@H]3[C@H](OC(C)=O)c4ccc(OC(C)=O)c(OC(C)=O)c4[C@]2(CCN3C)CC1=O (stereo partly drawn) [Compound 31] | apparent activities
2 | COC1=CC2[C@@H]3C(=O)c4ccc(OC)c(OC(C)=O)c4[C@]2(CCN3C)C[C@H]1O (stereo partly drawn) [Compound 40] | apparent activities
3 | COC1=CC2[C@@H]3[C@H](Sc4ccc(C(C)(C)C)cc4)c4ccc(O)c(O)c4[C@]2(CCN3C)CC1=O (stereo partly drawn) [Compound 8] | apparent activities
4 | COC1=C[C@@H]2[C@@H]3[C@H](Sc4ccc(C)cc4)c4ccc(O)c(O)c4[C@]2(CCN3C)CC1=O [Compound 1] | apparent activities
5 | COC1=CC2[C@@H]3[C@H](Sc4ccccc4)c4ccc(O)c(O)c4[C@]2(CCN3C)CC1=O (stereo partly drawn) [Compound 4] | apparent activities
6 | COC1=CC2[C@@H]3C(=O)c4ccc(OC)c(OC(C)=O)c4[C@]2(CCN3C)C[C@@H]1O (stereo partly drawn) [Compound 39] | apparent activities

same assay, conditions: mice macrophage cell line J774, 1 μg/mL LPS, compound 10 μM, 5 hours, 10 µM

Row | Compound | inhibition rate (IR) of TNF-α / anti-inflammatory activity (FIG. 1)
7 | COC1=CC2[C@@H]3[C@H](OC)c4c(CO)cc(OC)c(O)c4[C@]2(CCN3C)CC1=O (stereo partly drawn) [Compound 35, 1-hydroxymethyl-10β-methoxysinomenine] | TNF-α stimulating effects; also recorded: TNF-α stimulatory activities
8 | COC1=CC2[C@@H]3[C@H](OC)c4ccc(OC)c(O)c4[C@]2(CCN3C)CC1=O (stereo partly drawn) [Compound 33, 10β-methoxysinomenine] | TNF-α stimulating effects; also recorded: TNF-α stimulatory activities
9 | COC1=CC2[C@@H]3[C@H](OC(C)=O)c4c(CO)cc(OC)c(O)c4[C@]2(CCN3C)CC1=O (stereo partly drawn) [Compound 34, 1-hydroxymethyl-10β-acetoxysinomenine] | TNF-α stimulating effects; also recorded: TNF-α stimulatory activities

tested on: not given; assay: not given; details: not given

Row | Compound | melting point
10 | COC1=CC2[C@@H]3[C@H](OC(C)=O)c4ccc(OC(C)=O)c(OC(C)=O)c4[C@]2(CCN3C)CC1=O (stereo partly drawn) [Compound 31] | 198 to 199 °C
11 | COC1=CC2[C@@H]3[C@H](Sc4ccc(C(C)(C)C)cc4)c4ccc(O)c(O)c4[C@]2(CCN3C)CC1=O (stereo partly drawn) [Compound 8] | 232 to 233 °C (dec.)
12 | COC1=C[C@@H]2[C@@H]3[C@H](Sc4ccc(C)cc4)c4ccc(O)c(O)c4[C@]2(CCN3C)CC1=O [Compound 1] | 224 to 225 °C (dec.)
13 | COC1=CC2[C@@H]3[C@H](Sc4ccccc4)c4ccc(O)c(O)c4[C@]2(CCN3C)CC1=O (stereo partly drawn) [Compound 4] | 210 to 212 °C (dec.)
14 | COC1=CC2[C@@H]3[C@H](OC)c4ccc(OC)c(O)c4[C@]2(CCN3C)CC1=O (stereo partly drawn) [Compound 33, 10β-methoxysinomenine] | 201 to 203 °C (dec.)

tested on: TNF-α; assay: LPS-induced endotoxin shock model, plasma TNF-alpha by ELISA; assay type: in vivo; details: male C57BL/6 mice, 25, 50, 100 mg/Kg injected peritoneally 1 hour before LPS 2.5 mg/Kg; blood 1.5 hours after LPS
Description: The horizontal axis indicates the compound numbers corresponding to the examples or the amount of Compound 1 used in mg/Kg of mouse body weight. The vertical axis indicates the concentrations of TNF-α.
Materials: C57BL/6 mice (6-8 week old) are purchased from Shanghai Laboratory Animal Center (SLAC). Animals are kept, with sufficient water and standard diets, in the Laboratory Animal Center (clean room) in the Institute of Biochemistry and Cell Biology at the Shanghai Institute for Biological Sciences, Chinese Academy of Sciences.
Lipopolysaccharides (LPS) was purchased from Sigma (St. Louis, Mo.) was dissolved in sterile physiological saline and aliquots are stored at −70° C. (The LPS used in the cell testing has a catalog No. L4391, and used in animal testing has a catalog No. L3129.)
Cytokine (TNF-alpha) ELISA test kit (Catalog No. MTA00) was purchased from R&D Co.
Steps: (1) 6-8 week old male C57BL/6 mice are randomly grouped in 5 mice per group for use in endotoxin model tests;
(2) weigh each mouse, and inject peritoneally 200 μL different concentrations of small molecule Compound 1 in physiological saline (the injection doses for the low, medium, and high groups are respectively 25 mg/Kg, 50 mg/Kg, and 100 mg/Kg body weight). The control group was injected with 200 μL physiological saline; […]

Row | Compound | effect on pro-inflammatory cytokine TNF-α level in plasma (FIG. 3)
15 | COC1=C[C@@H]2[C@@H]3[C@H](Sc4ccc(C)cc4)c4ccc(O)c(O)c4[C@]2(CCN3C)CC1=O [Compound 1] | substantial inhibitory effect; also recorded: dose dependent
